Measured values reported in patent US7531541B2, “Partial mGluR5 antagonists for treatment of anxiety and CNS disorders” (Vanderbilt University, priority 2005, dated 2009).
“And” between values parts separate entries of the source, which are not always exact repeats. Equal entries are not always repeated.

What was measured:
[1] = biological target: T1, rat mGluR5 (allosteric MPEP site) (Rattus norvegicus, UniProt P31424); experiment: [3H]methoxyPEPy radioligand binding assay, membranes of HEK293A cells stably expressing rat mGluR5; conditions: for Ki: 2 nM [3H]methoxyPEPy, 60 min room temperature, rat mGluR5 HEK293A membranes, read-out: Ki, displacement of [3H]methoxyPEPy binding; for inhibition of binding of [3H]methoxyPEPy to mGluR5 membranes: extent of displacement, in words
T1 construct: expressed in transfected cells
Procedure: FIG. 3. […] Samples were filtered through glass fiber filters and washed extensively. […] Concentration response curves were generated from the means of three separate experiments. Error bars represent SEM.
Membranes were prepared from HEK293A cells stably expressing rat mGluR5. Compounds were diluted into assay buffer (50 mM Tris/0.9% NaCl, pH 7.4) to a 5× stock and 20 μL test compound added to each well of a 96 well assay plate. 60 μL aliquots of membranes diluted in assay buffer (10 μg/well) were added to each well. 20 μL [3H]methoxyPEPy (2 nM final concentration in assay buffer) was added and the reaction incubated at room temperature for 60 min with shaking. After the incubation period, the membrane-bound ligand was separated from free ligand by filtration through glass-fiber 96 well filter plates (Unifilter-96, GF/B by Perkin Elmer). The contents of each well was transferred simultaneously to the filter plate and washed 4 times with assay buffer (Brandel Cell Harvester). 30 μL scintillation fluid was added to each well and the membrane-bound radioactivity determined by scintillation counting (TopCount by Perkin-Elmer).

[2] = biological target: T2, mGluR5 (Rattus norvegicus, UniProt P31424); experiment: Calcium fluorescence assay (FDSS) in rat cortical astrocytes; type: cell-based; conditions: for effect on glutamate concentration response curve: 10 μM (maximally effective) compound, range of glutamate concentrations; for effect on glutamate-induced calcium response: 10 μM compound, 5 min; for effect on glutamate-induced calcium response / maximal reduction of the response to glutamate / antagonist activity across a range of concentrations / IC50: nearly maximal glutamate; for maximal inhibition relative to that of MPEP: % of maximal inhibition by MPEP; for block of MPEP-induced inhibition of the glutamate response: compound added 1 min before; for rightward shift of concentration response curve compared to MPEP: antagonism of mGluR5-mediated calcium increase; for activation of mGluR5 when added alone: compound alone; for maximal reduction of the response to glutamate: concentration response; for IC50: read-out: IC50 at inhibiting mGluR5 receptor responses; for potentiation of response to suboptimal glutamate: DFB 30 μM, CDPPB 3 μM
T2 construct: they provide a native system that endogenously expresses high levels of mGluR5; endogenous in cells; host or cells: primary (secondary-culture) rat cortical astrocytes from Sprague Dawley pups
Procedure: Metabotropic glutamate receptor 5induced phosphorylation of extracellular signal-regulated kinase in astrocytes depends on transactivation of the epidermal growth factor receptor. J Neurosci 21:9619-28). In brief, neocortices from 2-4 day old Sprague Dawley rat pups were dissected and dissociated in DMEM by trituration with 1 ml pipette tips. The cells were then centrifuged and resuspended in DMEM (containing 1 mM sodium pyruvate, 2 mM L-glutamine, PenStrep) supplemented with 10% FBS in T75 tissue culture flasks; the medium was changed the next day. Cell cultures were maintained at 37° C. in an atmosphere of 95% air/5% CO2 for 6-8 days. Cells were shaken overnight (280-310 rpm) to remove oligodendrocytes and microglia.
Secondary astrocytes were trypsinzed and replated into poly-D-Lysine coated 384 well plates (Greiner) at 10K cells/well in 20 μL growth medium (DMEM containing 10% FBS, 20 mM HEPES, 2 mM L-glutamine and antibiotic/antimycotic). The second day the medium was changed to growth medium and G-5 supplement (Invitrogen) containing EGF (10 ng/ml), basic fibroblast growth factor (5 ng/ml), insulin (5 μg/ml), and other factors. The cells were nearly confluent within 2 days and resembled the polygonal astrocytic appearance in vivo. The fourth day, approximately 20 hours before experiments, the medium was changed to glutamine free DMEM containing 5% dialyzed FBS, 20 mM HEPES and antibiotic/antimycotic. On day five medium was removed from the plate and the cells incubated with 20 μL of 1 μM Fluo-4AM (Molecular Probes) in assay buffer (Hank's balanced salt solution, 20 mM HEPES and 2.5 mM Probenecid) for 1 h at 37° C. Dye was removed and 20 μL assay buffer was added. Ca2+ flux was measured using the Functional Drug Screening System (FDSS6000 by Hamamatsu).
Compounds were diluted into assay buffer to a 5× stock which was applied to the cells. For neutral measurements, cells were preincubated with the test compounds for 1 min, potentiator or antagonist was added, and the cells incubated for an additional 5 min. Cells were then stimulated for 2 min with an appropriate concentration of glutamate. For potentiator and antagonist measurements, cells were preincubated with the test compounds for 5 min and then stimulated for 2 min with an appropriate concentration of glutamate. Data were collected at ¼ Hz during the preincubation period and at 1 Hz during the glutamate addition phase of the experiment.
Raw data were normalized in a three step process: (1) Cell number and non-uniform illumination/imaging were controlled for based on the initial readings for the well, (2) the signal amplitude for the data point immediately preceding the agonist addition was subtracted from each point on the trace, (3) data were normalized to the maximal response for each experiment. Concentration response curves were generated using Prism 4.0 (GraphPad).

[3] = test system: mGluR5 receptor responses in STN neurons; experiment: Whole-cell electrophysiology in STN neurons of rat midbrain slices (DHPG-induced depolarization); type: cell-based
[4] = biological target: T3, mGluR5 (Homo sapiens, UniProt P41594); conditions: recombinant CHO cells, Published US Application 2001/0056084; cited from earlier work
T3 construct: host or cells: CHO cells transfected with mGluR5 (earlier work)

[5] = 5MPEP 3, 10, 30 μM on MPEP concentration response

T1 sequence (P31424 21-1203): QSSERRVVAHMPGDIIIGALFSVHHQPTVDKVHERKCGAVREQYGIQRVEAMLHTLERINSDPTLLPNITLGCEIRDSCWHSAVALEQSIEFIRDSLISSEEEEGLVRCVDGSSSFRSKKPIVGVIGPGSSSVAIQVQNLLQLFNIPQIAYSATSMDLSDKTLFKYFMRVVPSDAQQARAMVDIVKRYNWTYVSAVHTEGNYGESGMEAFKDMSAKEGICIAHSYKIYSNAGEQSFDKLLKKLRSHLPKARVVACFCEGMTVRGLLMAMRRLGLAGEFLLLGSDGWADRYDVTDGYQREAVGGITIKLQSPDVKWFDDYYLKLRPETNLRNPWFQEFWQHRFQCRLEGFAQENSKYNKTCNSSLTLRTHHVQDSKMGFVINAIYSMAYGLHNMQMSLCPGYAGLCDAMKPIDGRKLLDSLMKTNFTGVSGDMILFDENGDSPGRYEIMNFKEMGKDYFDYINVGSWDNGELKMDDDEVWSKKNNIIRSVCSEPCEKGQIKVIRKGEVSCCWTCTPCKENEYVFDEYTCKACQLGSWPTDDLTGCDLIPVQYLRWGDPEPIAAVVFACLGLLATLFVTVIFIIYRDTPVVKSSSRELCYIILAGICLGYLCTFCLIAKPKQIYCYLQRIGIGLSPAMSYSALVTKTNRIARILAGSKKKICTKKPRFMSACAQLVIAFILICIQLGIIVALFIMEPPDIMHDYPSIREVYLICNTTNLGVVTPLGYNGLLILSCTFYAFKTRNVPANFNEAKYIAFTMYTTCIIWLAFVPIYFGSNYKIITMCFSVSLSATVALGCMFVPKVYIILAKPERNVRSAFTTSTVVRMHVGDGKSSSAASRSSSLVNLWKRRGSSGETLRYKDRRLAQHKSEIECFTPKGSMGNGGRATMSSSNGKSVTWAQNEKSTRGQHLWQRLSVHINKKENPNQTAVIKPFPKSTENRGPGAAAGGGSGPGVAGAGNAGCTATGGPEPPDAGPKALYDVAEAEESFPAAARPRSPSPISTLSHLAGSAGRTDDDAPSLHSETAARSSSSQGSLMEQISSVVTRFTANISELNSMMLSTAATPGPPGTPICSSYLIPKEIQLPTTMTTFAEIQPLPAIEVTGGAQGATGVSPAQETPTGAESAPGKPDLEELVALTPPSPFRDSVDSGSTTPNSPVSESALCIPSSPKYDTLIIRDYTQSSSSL
T2 sequence (P31424 21-1203): as above
T3 sequence (P41594 21-1212): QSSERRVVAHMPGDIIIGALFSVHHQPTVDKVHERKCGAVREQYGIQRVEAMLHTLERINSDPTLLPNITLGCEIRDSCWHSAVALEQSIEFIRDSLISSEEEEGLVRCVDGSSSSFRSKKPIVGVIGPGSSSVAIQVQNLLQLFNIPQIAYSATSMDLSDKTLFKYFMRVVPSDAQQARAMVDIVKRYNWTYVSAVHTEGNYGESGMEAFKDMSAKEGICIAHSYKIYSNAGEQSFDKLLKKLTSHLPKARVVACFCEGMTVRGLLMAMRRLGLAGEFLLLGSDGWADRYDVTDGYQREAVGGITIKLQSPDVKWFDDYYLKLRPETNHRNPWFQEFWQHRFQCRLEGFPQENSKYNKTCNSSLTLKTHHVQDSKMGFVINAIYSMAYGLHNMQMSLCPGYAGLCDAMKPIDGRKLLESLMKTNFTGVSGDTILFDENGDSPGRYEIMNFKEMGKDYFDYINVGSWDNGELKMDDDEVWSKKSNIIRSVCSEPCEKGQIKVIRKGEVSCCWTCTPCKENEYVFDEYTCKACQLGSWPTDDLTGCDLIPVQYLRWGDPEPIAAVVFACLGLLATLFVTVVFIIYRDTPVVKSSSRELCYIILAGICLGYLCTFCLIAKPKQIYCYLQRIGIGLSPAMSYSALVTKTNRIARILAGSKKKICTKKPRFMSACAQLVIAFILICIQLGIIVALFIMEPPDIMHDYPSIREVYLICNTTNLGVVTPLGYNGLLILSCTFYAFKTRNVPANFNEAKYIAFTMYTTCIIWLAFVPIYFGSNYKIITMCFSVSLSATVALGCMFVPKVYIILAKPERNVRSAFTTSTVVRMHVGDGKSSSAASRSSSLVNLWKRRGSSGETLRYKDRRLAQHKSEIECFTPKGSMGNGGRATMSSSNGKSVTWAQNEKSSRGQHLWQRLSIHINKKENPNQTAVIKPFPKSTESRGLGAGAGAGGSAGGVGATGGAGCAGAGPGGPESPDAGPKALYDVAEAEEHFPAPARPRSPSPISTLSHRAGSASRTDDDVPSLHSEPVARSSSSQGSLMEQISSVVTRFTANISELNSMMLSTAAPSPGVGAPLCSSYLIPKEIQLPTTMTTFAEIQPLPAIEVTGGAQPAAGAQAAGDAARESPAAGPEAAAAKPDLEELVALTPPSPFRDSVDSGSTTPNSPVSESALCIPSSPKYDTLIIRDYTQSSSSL

Molecule: COc1cccc(C#Cc2ccc(C)cn2)c1 [M-5MPEP, 2-(3-Methoxyphenylethynyl)-5-methylpyridine]
- Ki [1]: 145 nM
- inhibition of binding of [3H]methoxyPEPy to mGluR5 membranes [1]: fully inhibited
- effect on glutamate concentration response curve [2]: rightward and partial downward shift
- effect on glutamate-induced calcium response [2]: partially inhibited
- maximal inhibition relative to that of MPEP [2]: approximately 50%
- block of MPEP-induced inhibition of the glutamate response ([2]; MPEP 50 nM): only partially blocked
- rightward shift of concentration response curve compared to MPEP [2]: approximately 10 fold
- activation of mGluR5 when added alone [2]: do not partially activate
- maximal reduction of the response to glutamate [2]: approximately 50%
- antagonist activity across a range of concentrations [2]: partial antagonist activity
- IC50 [2]: ~300 nM

Molecule: Cc1ccc(C#Cc2ccccc2)nc1 [5MPEP, 5-methyl-2-phenylethynyl-pyridine, reference compound]
- effect on glutamate-induced calcium response [2]: no inhibitory effect
- effect on mGluR5 response to glutamate alone ([2]; 5MPEP 30 μM, suboptimal glutamate): does not alter
- block of allosteric potentiator responses to DFB and CDPPB ([2]; 5MPEP 30 μM, DFB 30 μM or CDPPB 3 μM, suboptimal glutamate): completely blocks
- Schild regression slope, 5MPEP versus MPEP [2, 5]: 1.076±0.0094 and 1.076±0.01
- Schild x-intercept [2, 5]: −6.249
- block of MPEP-induced inhibition of the glutamate response ([2]; MPEP 50 nM): fully blocked
- Ki ([2]; extrapolated from Schild regression, read-out: Ki from Schild analysis (x-intercept)): 560 nM
- DHPG-induced depolarization in presence of CDPPB and 5MPEP [3]: 7.05±0.82 mV
- DHPG-induced depolarization in presence of MPEP and 5MPEP [3]: 14.28±2.1 mV
- effect on membrane potential of STN neurons [3]: no effect
- inhibition of mGluR5 receptor responses [4]: completely inactive

Molecule: Brc1ccc(C#Cc2ccccc2)nc1.Cl [YP260]
- partial antagonist activity (FIG. 11) ([2]; similarly to the figures above): partial activities

Molecule: Fc1cccc(C=NN=Cc2cccc(F)c2)c1 [DFB, 3,3′-di fluorobenzaldazine, reference compound]
- potentiation of response to suboptimal glutamate [2]: potentiated

Molecule: Cc1cccc(C#Cc2ccccc2)n1 [MPEP, 2-methyl-6-(phenylethynyl)-pyridine, reference compound]
- effect on glutamate-induced calcium response [2]: fully blocked
- inhibition of calcium response to nearly maximal glutamate ([2]; MPEP 50 nM): robust inhibition
- DHPG-induced depolarization in presence of MPEP ([3]; DHPG 100 μM + MPEP 10 μM): 6.15+0.82 mV

Molecule: N[C@H](C(=O)O)c1cc(O)cc(O)c1 [DHPG]
- depolarization of STN neurons ([3]; DHPG 10 μM alone (submaximal)): 6.89 ± 1.22 mV
- depolarization of STN neurons ([3]; DHPG 100 μM alone, TTX 500 nM): 14.82 ± 2.21 mV

Molecule: N#Cc1cccc(C(=O)Nc2cc(-c3ccccc3)nn2-c2ccccc2)c1 [CDPPB, 3-cyano-N-(I,3-diphenyl-1 H-pyrazol-5-yl)benzamide, reference compound]
- potentiation of response to suboptimal glutamate [2]: potentiated
- DHPG-induced depolarization in presence of CDPPB ([3]; DHPG 10 μM + CDPPB 10 μM): 13.39±1.66 mV

Molecule: 3-(6-Methylpyridin-2-ylethynyl)-5-bromopyridine [Br-5MPEPy]
- Ki [1]: 182 ± 50 nM
- inhibition of binding of [3H]methoxyPEPy to mGluR5 membranes [1]: fully inhibited
- effect on glutamate concentration response curve [2]: rightward and partial downward shift
- effect on glutamate-induced calcium response [2]: partially inhibited
- maximal inhibition relative to that of MPEP [2]: approximately 50%
- block of MPEP-induced inhibition of the glutamate response ([2]; MPEP 50 nM): only partially blocked
- rightward shift of concentration response curve compared to MPEP [2]: approximately 10 fold
- activation of mGluR5 when added alone [2]: do not partially activate
- maximal reduction of the response to glutamate [2]: approximately 50%
- antagonist activity across a range of concentrations [2]: partial antagonist activity
- IC50 [2]: ~300 nM
